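Exposure lasted 48 hours, with cells grown in 96-well plates and compounds tested at five concentrations. GI50: concentration for 50% inhibition of growth. At the TGI there is no net growth.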
Tests used:
Assay in all cases: NCI tumour cell line growth inhibition, 48 h
DMS 114 small cell lung = system: DMS 114 small cell lung
LXFL 529 NSCLC = system: LXFL 529 NSCLC
RXF-631 renal = system: RXF-631 renal
HOP-18 NSCLC = system: HOP-18 NSCLC
HS 578T breast = system: HS 578T breast
MDA-N = system: MDA-N
P388/ADR leukemia = system: P388/ADR leukemia
P388 leukemia = system: P388 leukemia
SN12K1 renal = system: SN12K1 renal

SMILES | TGI (DMS 114 small cell lung) | TGI (LXFL 529 NSCLC) | TGI (HOP-18 NSCLC) | GI50 (HS 578T breast) | TGI (HS 578T breast) | also measured
CCC(=O)c1c(NOC2OC(COC(C)=O)C(OC(C)=O)C(OC(C)=O)C2OC(C)=O)nc(OC)n(C)c1=O (stereo unspecified) | > 100 µM | > 100 µM |  |  |  | TGI (RXF-631 renal): > 100 µM
CC(=O)c1ccc(NC(=O)C(=O)Nn2c(=S)[nH]c3ccccc3c2=O)cc1 | > 100 µM | > 100 µM | > 100 µM |  |  | 
COC(=O)C1=C(C)NC(C)=C(C(=O)OC)C1/C=C(Cl)/C=C/c1ccccc1 |  |  |  | 38.4 µM | > 100 µM | 
C=C(Br)N(CC)CC | > 100 µM | > 100 µM | > 100 µM |  |  | TGI (RXF-631 renal): > 100 µM
Fc1ccccc1C1CC(c2ccc3ccccc3c2)=Nc2ccccc2S1 (stereo unspecified) |  | > 100 µM | > 100 µM |  |  | 
C=C1CCC2C(C)(C)CCC[C@]2(C)[C@H]1CO (stereo partly specified) |  |  |  | > 100 µM | > 100 µM | 
COc1ccc(/C(C#N)=C/c2ccc(OC)c(OC)c2)cc1 |  |  |  |  | > 100 µM | TGI (MDA-N): > 100 µM
CCCCS(=O)(=O)CCC(N)C(=O)O (stereo unspecified) |  |  |  |  | > 100 µM | TGI (MDA-N): > 100 µM
COc1cc(O)c(C(=O)/C=C/c2ccc(O)cc2)c(O)c1[C@@H]1C[C@H](CCc2ccc(O)cc2)O[C@H](c2ccc(O)cc2)C1 |  |  |  | 3.34 µM | 16.6 µM | 
CCNC(=O)c1cc2c(-c3cc(C(C)(C)O)ccc3Oc3c(C)cc(F)cc3C)cn(C)c(=O)c2[nH]1 |  |  |  | 0.753 µM | 21.5 µM | 
COC1OC(COCc2ccc(Cl)cc2)C(OCc2ccc(Cl)cc2)C1N=[N+]=[N-] (stereo unspecified) | > 100 µM | > 100 µM | > 100 µM |  |  | 
COc1ccc(Cn2cc3c(c2-c2ccc(OC)cc2)CCc2cnoc2-3)cc1 |  |  |  | 0.301 µM | 1.14 µM | 
Cc1cc(Cl)ccc1NC(=O)c1cc2ccccc2cc1O |  |  |  | 1.31 µM | > 100 µM | 
NC(=O)c1cc(-c2ccc(F)cc2)cc(-c2ccncc2)c1N |  |  |  | 5.66 µM | > 23.4 µM | 
CCCCCCCCCCCCCP(=O)(O)OCC | > 100 µM | > 100 µM | > 100 µM |  |  | TGI (RXF-631 renal): > 100 µM
Cc1occc1C(=S)Nc1ccc(Cl)c(C(=O)OC(C)C2CC2)c1 (stereo unspecified) |  |  |  |  | 69.1 µM | TGI (MDA-N): 38.4 µM
C=C1CC/C=C(\C)C(=O)C[C@@H]2[C@@H]1CC2(C)C |  |  |  |  |  | TGI (MDA-N): 3.16 µM
O=C1C2C3C=CC(C2C(=O)N1COP(=O)(O)O)C1C2C(=O)N(COP(=O)(O)O)C(=O)C2C31 (stereo unspecified) | > 58.8 µM | > 100 µM | > 100 µM |  |  | 
N#CSCC1CC(O)(c2ccccc2)CC(c2ccc(F)cc2)O1 (stereo unspecified) |  |  |  | 1.96 µM | 4.6 µM | 
CC1(C)[C@@H](O[C@@H]2OC[C@@H](O[C@@H]3O[C@H](CO)[C@@H](O)[C@H](O)[C@H]3O[C@@H]3OC[C@@H](O)[C@H](O)[C@H]3O)[C@H](O)[C@H]2O[C@@H]2O[C@H](CO)[C@@H](O)[C@H](O)[C@H]2O)CC[C@]2(C)[C@H]3CC[C@]45OC[C@@]6(CC[C@](C)(C=O)C[C@H]64)[C@H](O)C[C@@]5(C)[C@]3(C)CC[C@@H]12 |  |  |  | 0.995 µM | 2.4 µM | 

SMILES | TGI (DMS 114 small cell lung) | TGI (LXFL 529 NSCLC) | TGI (HOP-18 NSCLC) | GI50 (HS 578T breast) | TGI (HS 578T breast) | also measured
O=C(Cc1nc2ccccc2s1)Nc1cccc(C(F)(F)F)c1 | 36.3 µM | 27.3 µM | 33.5 µM |  |  | TGI (RXF-631 renal): 26.8 µM
O=C(O)c1cccc(N=Nc2c(S(=O)(=O)O)ccc3c2C(=O)c2ccccc2C3=O)c1O |  |  |  |  | > 100 µM | TGI (MDA-N): > 100 µM
CC(=Nc1ccccc1)C1=C(O)C(Cc2ccccc2)NC1=O (stereo unspecified) |  |  |  | 0.0354 µM | > 100 µM | 
CN(C)CCNC(=O)c1cccc2c1nc(-c1ccccc1)c1ccccc12 |  |  | 27.9 µM |  |  | TGI (RXF-631 renal): 3.06 µM
Cc1c(COc2cc(OCc3cccc(C#N)c3)c(CN3C[C@H](O)C[C@@H]3C(=O)O)cc2Cl)cccc1-c1ccc2c(c1)OCCO2 |  |  |  | 21 µM | 53.1 µM | 
c1cc(CNCCN2CCNCC2)ccn1 |  |  |  |  | > 100 µM | TGI (MDA-N): > 100 µM
O=C(/C=C/c1cc([N+](=O)[O-])ccc1Cl)c1ccccc1 |  |  |  | 21.2 µM | 61.7 µM | 
CC(=O)O[C@]1(C(C)=O)CC[C@H]2[C@@H]3C=C(C)C4=CC(=O)CC[C@]4(C)[C@H]3CC[C@@]21C |  |  |  | > 60.4 µM | > 100 µM | 
O=C(CCC(=O)C(C(=O)c1ccccc1)c1ccccc1)Nc1cccc(C(F)(F)F)c1 (stereo unspecified) | > 100 µM | > 100 µM | > 100 µM |  |  | 
O=C(NP(=O)(N1CC1)N1CC1)c1cc(I)ccc1I | 99.2 µM | > 100 µM | > 100 µM |  | > 100 µM | TGI (MDA-N): > 100 µM
CC1OC(OC2C(O[C@H]3CC[C@@]4(C)C(=CC[C@H]5[C@@H]6C[C@@H]7O[C@]8(CC[C@H](C)CN8)[C@@H](C)[C@@H]7[C@@]6(C)CC[C@@H]54)C3)OC(CO)C(O)C2OC2OC(CO)C(O)C(O)C2O)C(O)C(O)C1O (stereo partly specified) |  |  |  |  | 31.2 µM | TGI (MDA-N): 36.1 µM
Cc1ccc(S(=O)(=O)OCC23CCC(CC2)C2CC23)cc1 (stereo unspecified) | > 100 µM | > 100 µM | > 100 µM |  |  | TGI (RXF-631 renal): > 100 µM
CC1(C)Cc2cc(C(=O)O)c3c(c2C1=O)COCC3 | > 100 µM | > 100 µM | > 100 µM |  |  | 
Cn1ccnc1C(=O)/C=C/c1ccccc1 |  |  |  | 2.39 µM | 8.6 µM | 
CS(=O)(=O)N(N(CCCl)S(=O)(=O)c1ccccc1)S(C)(=O)=O |  | > 100 µM | > 100 µM |  |  | TGI (RXF-631 renal): > 100 µM
COC(=O)CCC(=O)CC(=O)C(=O)Nc1c(Cl)cc([N+](=O)[O-])cc1Cl | 77.9 µM | > 100 µM | > 100 µM |  |  | TGI (RXF-631 renal): > 100 µM
COc1ccc(Nc2c3ccccc3nc3ccccc23)cc1 |  |  |  | 5.26 µM | 27.5 µM | 
CCCCCCCCCCCC1CCCC(C)N1 (stereo unspecified) | 139 µM |  | 169 µM | 8.6 µM | 26.2 µM | TGI (P388/ADR leukemia): 54.7 µM; TGI (P388 leukemia): 23.9 µM; TGI (SN12K1 renal): 86.4 µM
Nc1nc(-c2ccccc2)nc2c1[n+]([O-])c1ccccc1[n+]2[O-] |  |  |  |  | > 100 µM | 

Reference: PubChem BioAssay (NCI)
